# According to PubChem BioAssay AID2060626 (Molecular Pharmacology Branch, DTP, NCI, 2025):
# Tested on: 168753-222-R-J1-PDC complex spheroid viability
# Assay: Anticancer human tumor 168753-222-R-J1-PDC patient-derived bladder carcinoma cell line growth inhibition [CLK]
# Conditions: for IC50: curve of first compound; for viability, T/C: stronger effect = lower value
# Method in brief: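 Multi-cell-type spheroids combined patient-derived tumor cells with HUVEC endothelial cells and human mesenchymal stem cells. Paired agents were dosed in half-log steps down from about clinical Cmax, or from 10 microM where Cmax was unknown.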
# [1] = second compound 0.0316 µM, first compound 0.0316 µM
# [2] = second compound 0.0316 µM, first compound 0.1 µM
# [3] = second compound 0.0316 µM, first compound 0.316 µM
# [4] = second compound 0.0316 µM, first compound 1 µM
# [5] = second compound 0.0316 µM, first compound 3.16 µM
# [6] = second compound 0.0316 µM, first compound 10 µM
# [7] = second compound 0.1 µM, first compound 0.0316 µM
# [8] = second compound 0.1 µM, first compound 0.1 µM
# [9] = second compound 0.1 µM, first compound 0.316 µM
# [10] = second compound 0.1 µM, first compound 1 µM
# [11] = second compound 0.1 µM, first compound 3.16 µM
# [12] = second compound 0.1 µM, first compound 10 µM
# [13] = second compound 0.316 µM, first compound 0.0316 µM
# [14] = second compound 0.316 µM, first compound 0.1 µM
# [15] = second compound 0.316 µM, first compound 0.316 µM
# [16] = second compound 0.316 µM, first compound 1 µM
# [17] = second compound 0.316 µM, first compound 3.16 µM
# [18] = second compound 0.316 µM, first compound 10 µM
# [19] = second compound 1 µM, first compound 0.0316 µM
# [20] = second compound 1 µM, first compound 0.1 µM
# [21] = second compound 1 µM, first compound 0.316 µM
# [22] = second compound 1 µM, first compound 1 µM
# [23] = second compound 1 µM, first compound 3.16 µM
# [24] = second compound 1 µM, first compound 10 µM
# [25] = second compound 3.16 µM, first compound 0.0316 µM
# [26] = second compound 3.16 µM, first compound 0.1 µM
# [27] = second compound 3.16 µM, first compound 0.316 µM
# [28] = second compound 3.16 µM, first compound 1 µM
# [29] = second compound 3.16 µM, first compound 3.16 µM
# [30] = second compound 3.16 µM, first compound 10 µM
# [31] = second compound 10 µM, first compound 0.0316 µM
# [32] = second compound 10 µM, first compound 0.1 µM
# [33] = second compound 10 µM, first compound 0.316 µM
# [34] = second compound 10 µM, first compound 1 µM
# [35] = second compound 10 µM, first compound 3.16 µM
# [36] = second compound 10 µM, first compound 10 µM
# 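Further: viability measured after seven days of drug exposure.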
# 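Wherever viability, T/C is given: luminescence signal used as surrogate for viable cell amount; 100% = DMSO vehicle control wells.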
structure (smiles),measurement,setting,value
CC1(C)CCC(CN2CCN(c3ccc(C(=O)NS(=O)(=O)c4ccc(NCC5CCOCC5)c([N+](=O)[O-])c4)c(Oc4cnc5[nH]ccc5c4)c3)CC2)=C(c2ccc(Cl)cc2)C1 + CNC(=O)c1ccc(Nc2nc(OC3CCCC3)c3c(-c4ccc5nc(C)oc5c4)c[nH]c3n2)c(OC)c1,IC50,second compound 0.0316 µM,6520 nM
same,IC50,second compound 0.1 µM,5810 nM
same,IC50,second compound 0.316 µM,4580 nM
same,IC50,second compound 1 µM,45.8 nM
same,IC50,second compound 3.16 µM,< 31.6 nM
same,IC50,second compound 10 µM,< 31.6 nM
same,"viability, T/C",[1],109%
same,"viability, T/C",[2],112%
same,"viability, T/C",[3],104%
same,"viability, T/C",[4],109%
same,"viability, T/C",[5],97%
same,"viability, T/C",[6],22%
same,"viability, T/C",[7],99.7%
same,"viability, T/C",[8],99.5%
same,"viability, T/C",[9],101%
same,"viability, T/C",[10],95.7%
same,"viability, T/C",[11],90.2%
same,"viability, T/C",[12],14%
same,"viability, T/C",[13],75.2%
same,"viability, T/C",[14],77%
same,"viability, T/C",[15],79.6%
same,"viability, T/C",[16],80.3%
same,"viability, T/C",[17],66.7%
same,"viability, T/C",[18],12.6%
same,"viability, T/C",[19],50.4%
same,"viability, T/C",[20],49.5%
same,"viability, T/C",[21],38.4%
same,"viability, T/C",[22],25.9%
same,"viability, T/C",[23],27.2%
same,"viability, T/C",[24],13.8%
same,"viability, T/C",[25],23.3%
same,"viability, T/C",[26],23.1%
same,"viability, T/C",[27],19.5%
same,"viability, T/C",[28],20%
same,"viability, T/C",[29],17.6%
same,"viability, T/C",[30],23.9%
same,"viability, T/C",[31],18.1%
same,"viability, T/C",[32],17.3%
same,"viability, T/C",[33],17.6%
same,"viability, T/C",[34],17.3%
same,"viability, T/C",[35],15.8%
same,"viability, T/C",[36],20.4%
C=C(F)C(=O)N1CCN(c2nc(OCC3CCCN3C)nc3c2CCN(c2cccc4cccc(Cl)c24)C3)CC1CC#N (stereo not drawn) + CN1CCN(c2cc(C(=O)Nc3cc4cc(-c5cnn(C)c5)ccc4cn3)ccn2)CC1,IC50,second compound 0.0316 µM,3260 nM
same,IC50,second compound 0.1 µM,1230 nM
same,IC50,second compound 0.316 µM,< 31.6 nM
same,IC50,second compound 1 µM,< 31.6 nM
same,IC50,second compound 3.16 µM,< 31.6 nM
same,IC50,second compound 10 µM,< 31.6 nM
same,"viability, T/C",[1],89.1%
same,"viability, T/C",[2],111%
same,"viability, T/C",[3],85.8%
same,"viability, T/C",[4],101%
same,"viability, T/C",[5],51.4%
same,"viability, T/C",[6],0.91%
same,"viability, T/C",[7],58.7%
same,"viability, T/C",[8],46.7%
same,"viability, T/C",[9],63.5%
same,"viability, T/C",[10],56.3%
same,"viability, T/C",[11],21.8%
same,"viability, T/C",[12],0.32%
same,"viability, T/C",[13],15.6%
same,"viability, T/C",[14],13%
same,"viability, T/C",[15],11.8%
same,"viability, T/C",[16],8.4%
same,"viability, T/C",[17],4.48%
same,"viability, T/C",[18],1.3%
same,"viability, T/C",[19],0.47%
same,"viability, T/C",[20],0.78%
same,"viability, T/C",[21],0.38%
same,"viability, T/C",[22],0.16%
same,"viability, T/C",[23],0.12%
same,"viability, T/C",[24],1.07%
same,"viability, T/C",[25],0.26%
same,"viability, T/C",[26],0.24%
same,"viability, T/C",[27],0.44%
same,"viability, T/C",[28],0.14%
same,"viability, T/C",[29],0.87%
same,"viability, T/C",[30],0.23%
same,"viability, T/C",[31],0.27%
same,"viability, T/C",[32],0.19%
same,"viability, T/C",[33],0.28%
same,"viability, T/C",[34],0.24%
same,"viability, T/C",[35],0.36%
same,"viability, T/C",[36],2.34%
C#Cc1c(F)ccc2cc(O)cc(-c3ncc4c(N5CC6CCC(C5)N6)nc(OCC56CCCN5CC(F)C6)nc4c3F)c12 (stereo not drawn) + CN1CCN(c2cc(C(=O)Nc3cc4cc(-c5cnn(C)c5)ccc4cn3)ccn2)CC1,IC50,second compound 0.0316 µM,> 10000 nM
same,IC50,second compound 0.1 µM,1850 nM
same,IC50,second compound 0.316 µM,< 31.6 nM
same,IC50,second compound 1 µM,< 31.6 nM
same,IC50,second compound 3.16 µM,< 31.6 nM
same,IC50,second compound 10 µM,< 31.6 nM
same,"viability, T/C",[1],105%
same,"viability, T/C",[2],107%
same,"viability, T/C",[3],101%
same,"viability, T/C",[4],103%
same,"viability, T/C",[5],96.4%
same,"viability, T/C",[6],70.3%
same,"viability, T/C",[7],77.7%
same,"viability, T/C",[8],64.7%
same,"viability, T/C",[9],63.9%
same,"viability, T/C",[10],64.2%
same,"viability, T/C",[11],37.4%
same,"viability, T/C",[12],38%
same,"viability, T/C",[13],14.7%
same,"viability, T/C",[14],14.6%
same,"viability, T/C",[15],11.8%
same,"viability, T/C",[16],12%
same,"viability, T/C",[17],12.1%
same,"viability, T/C",[18],7.39%
same,"viability, T/C",[19],0.54%
same,"viability, T/C",[20],0.65%
same,"viability, T/C",[21],1.92%
same,"viability, T/C",[22],0.88%
same,"viability, T/C",[23],0.75%
same,"viability, T/C",[24],0.34%
same,"viability, T/C",[25],2.41%
same,"viability, T/C",[26],0.59%
same,"viability, T/C",[27],1.48%
same,"viability, T/C",[28],0.13%
same,"viability, T/C",[29],0.39%
same,"viability, T/C",[30],0.22%
same,"viability, T/C",[31],0.18%
same,"viability, T/C",[32],0.32%
same,"viability, T/C",[33],0.39%
same,"viability, T/C",[34],0.2%
same,"viability, T/C",[35],0.57%
same,"viability, T/C",[36],3.73%
C=CC(=O)N1CCN(c2nc(=O)n(-c3c(C)ccnc3C(C)C)c3nc(-c4c(O)cccc4F)c(F)cc23)C(C)C1 (stereo not drawn) + CN1CCN(c2cc(C(=O)Nc3cc4cc(-c5cnn(C)c5)ccc4cn3)ccn2)CC1,IC50,second compound 0.0316 µM,> 10000 nM
same,IC50,second compound 0.1 µM,3770 nM
same,IC50,second compound 0.316 µM,< 31.6 nM
same,IC50,second compound 1 µM,< 31.6 nM
same,IC50,second compound 3.16 µM,< 31.6 nM
same,IC50,second compound 10 µM,< 31.6 nM
same,"viability, T/C",[1],96.6%
same,"viability, T/C",[2],107%
same,"viability, T/C",[3],111%
same,"viability, T/C",[4],133%
same,"viability, T/C",[5],82.8%
same,"viability, T/C",[6],100%
same,"viability, T/C",[7],79.4%
same,"viability, T/C",[8],84.5%
same,"viability, T/C",[9],55.5%
same,"viability, T/C",[10],75.3%
same,"viability, T/C",[11],52.5%
same,"viability, T/C",[12],32.1%
same,"viability, T/C",[13],16.2%
same,"viability, T/C",[14],13.4%
same,"viability, T/C",[15],14.2%
same,"viability, T/C",[16],13.8%
same,"viability, T/C",[17],12.8%
same,"viability, T/C",[18],15.2%
same,"viability, T/C",[19],0.29%
same,"viability, T/C",[20],0.48%
same,"viability, T/C",[21],1.79%
same,"viability, T/C",[22],0.27%
same,"viability, T/C",[23],0.3%
same,"viability, T/C",[24],0.2%
same,"viability, T/C",[25],1.43%
same,"viability, T/C",[26],0.16%
same,"viability, T/C",[27],0.55%
same,"viability, T/C",[28],0.11%
same,"viability, T/C",[29],1.89%
same,"viability, T/C",[30],0.22%
same,"viability, T/C",[31],0.21%
same,"viability, T/C",[32],0.2%
same,"viability, T/C",[33],0.6%
same,"viability, T/C",[34],0.18%
same,"viability, T/C",[35],0.4%
same,"viability, T/C",[36],0.57%
